According to US20040138203A1, “Bicyclic lactams and sulfonamides with 5-ht1a -affinity and use thereof for preventing and treating cerebral ischaemia” (priority 2000, published 2004):

The compounds below were run against T1, cloned human 5-HT1A receptors (Homo sapiens, UniProt P08908) (assay: 5-HT1A binding assay using membranes from 5-HT1A receptor-expressing HEK293 cells (3H-8-OH-DPAT displacement)). Conditions: 3H-8-OH-DPAT 0.15 nM, HEK293 cell membranes, 90 min at 22° C.
T1 construct: expressed in transfected cells; host or cells: HEK293 cells, kept under G-418 selection; membranes used
T1 sequence (P08908 1-422): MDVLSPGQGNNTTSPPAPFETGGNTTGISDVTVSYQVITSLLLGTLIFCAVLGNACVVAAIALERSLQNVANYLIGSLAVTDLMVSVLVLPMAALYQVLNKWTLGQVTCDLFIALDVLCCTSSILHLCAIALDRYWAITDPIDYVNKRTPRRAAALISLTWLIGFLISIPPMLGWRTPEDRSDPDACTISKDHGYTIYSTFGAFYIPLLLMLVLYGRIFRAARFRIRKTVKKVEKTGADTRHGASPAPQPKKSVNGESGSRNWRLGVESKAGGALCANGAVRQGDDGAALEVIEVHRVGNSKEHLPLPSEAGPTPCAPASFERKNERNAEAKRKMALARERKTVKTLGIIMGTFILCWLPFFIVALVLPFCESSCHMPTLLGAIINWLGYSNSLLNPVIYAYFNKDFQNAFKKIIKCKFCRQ
Procedure: The following test arrangement was used for determining the receptor binding affinity:
5-HT1A binding assay using membranes from 5-HT1A receptor-expressing HEK293 cells
Culturing 5-HT1A receptor-expressing HEK293 cells 5-HT1A-expressing HEK293 cells are cultured, at 37° C. and in a 5% CO2 atmosphere, in RPMI/Glutamax medium (RPMI 1640, 25 mM Hepes, 2 mM Glutamax, 10% FCS, 2 mM glutamine, penicillin/streptomycin (100 IU/ml each), geneticin G-418 sulfate, 400 mg/l, NaHCO3, 1.2 g/l) in culture flasks (T-175 triple flasks). After confluence has been reached, the medium is removed and the flasks are filled with 15 ml of sterile PBS (phosphate-buffered saline). The cells are detached by incubating them for 10 minutes (incubator, 37° C.) with a trypsin solution (0.05% trypsin, 0.0004% EDTA, 0.02% EGTA, 2.682 mM KCl, 1.47 mM KH2PO4, 6.46 mM NaHPO4, 136.89 mM NaCl). The detachment of the cells is promoted by knocking on the bottom of the flask. After having been transferred into 50 ml tubes (Greiner), the cells are centrifuged at 250×g at room temperature. The supernatant is discarded and the cells are resuspended in 10 ml of medium. The cells are aliquoted once again into culture flasks and cultured for a further 5 to 6 days until the membranes are prepared.
Preparing the Membranes from 5-HT1A Receptor-Expressing HEK293 Cells
The supernatants are removed from the cells and the culture flasks are filled with PBS. The cells are then incubated for 10 minutes with a trypsin solution (for composition see above). The detachment of the cells is promoted by knocking on the bottom of the flask. The cell suspension is removed and the remaining cells are likewise taken up in PBS by washing the culture flasks twice with PBS. The combined cell suspension is aliquoted into […] and centrifuged at 250×g and 4° C. for 10 minutes. The supernatants are discarded and the cells in the pellet are resuspended in PBS. 20 μl of the cell suspension are removed and the cell density is determined. The cells are centrifuged once again at 250×g (4° C.) for 10 minutes, after which the supernatant is discarded and the cells in the pellet are homogenized in 50 mM tris-HCl, pH 7.4 (1 ml/10^8 cells) using an Ultra-Turrax (30 sec).
The homogenate is aliquoted into cryotubes (1 ml/cryotube) and stored in liquid nitrogen until used in the binding assay.
The frozen membranes are thawed at 37° C., after which they are centrifuged at 48000*g (20 minutes) and then resuspended in binding buffer (50 mM Tris-HCl, pH 7.4, 5 mM CaCl2). An incubation assay mixture contains membrane material from […], 0.15 pmol (=0.15 nM) of 3H-8-OH-DPAT, and the substances to be tested, in a total of 1 ml of binding buffer. Nonspecific binding is determined in the presence of 10^−5 M 5-carboxamidotryptamine. Following a 90-minute incubation at 22° C., bound and free ligand are separated from each other by filtering through […] and subsequently washing with from 5 to 9 ml of ice-cold binding buffer. Before use, the GF/B filters are treated for at least 2 hours with 0.3% polyethylenimine. Following filtration, from 3 to 4 ml of Packard Ultima Gold XR are added to the filters and the radioactivity is determined by liquid scintillation counting in a Packard Tricarb.
Evaluating the Data from the 5-HT1A Binding Assay
The displacement curves are analyzed by nonlinear regression using a modified version of the “Ligand” program of Munson & Rodbard (Anal. Biochem., 107, 220 (1980)). The value of the theoretical nonspecific binding is assessed to be the theoretical binding of radioligand at infinitely high ligand concentration. In this connection, the measured values for the nonspecific binding are treated as data points of the displacement curve which correspond to experimental points at an infinitely high ligand concentration. […]

Compound | Ki
O=C1c2ccccc2CCN1CCN1CCN(c2nccc3ccccc23)CC1 [Example 1, 2-[2-(4-(1-Isoquinolinyl)-1-piperazinyl)ethyl]-3,4-dihydro-1(2H)-isoquinolinone] | 0.6 nM
O=c1c2ccccc2ccn1CCN1CCN(c2nccc3ccccc23)CC1 [Example 2, 2-[2-(4-(1-Isoquinolinyl)-1-piperazinyl)-ethyl]-1(2H)-isoquinolinone] | 0.6 nM
O=S1(=O)c2ccccc2CN1CCN1CCN(c2nccc3ccccc23)CC1 [Example 3, 2-[2-(4-(1-Isoquinolinyl)-1-piperazinyl)-ethyl]-2,3-dihydro-1,2-benzisothiazole 1,1-dioxide] | 1.6 nM
Cc1cccc(N2CCN(CCN3Cc4ccccc4C3=O)CC2)n1 [Example 4, 2-[2-(4-(6-Methyl-2-pyridinyl)-1-piperazinyl)-ethyl]-1-isoindolinone] | 2.6 nM
O=C1Cc2ccccc2N1CCN1CCN(c2cccc(C(F)(F)F)c2)CC1 [Example 5, 1-[2-(4-(3-Trifluoromethylphenyl)-1-piperazinyl)ethyl]-1,3-dihydro-2H-indol-2-one] | 2.9 nM
O=C1CCc2ccccc2N1CCN1CCN(c2nccc3ccccc23)CC1 [Example 6, 1-[2-(4-(1-Isoquinolinyl)-1-piperazinyl)-ethyl]-3,4-dihydro-2(1H)-quinolinone] | 4.1 nM
O=c1ccc2ccccc2n1CCN1CCN(c2nccc3ccccc23)CC1 [Example 7, 1-[2-(4-(1-Isoquinolinyl)-1-piperazinyl)-ethyl]-2(1H)-quinolinone] | 2.4 nM
O=S1(=O)c2ccccc2CN1CCN1CCN(c2cccc3ccccc23)CC1 [Example 8, 2-[2-(4-(1-Naphthyl)-1-piperazinyl)ethyl]-2,3-dihydro-1,2-benzisothiazole 1,1-dioxide] | 0.1 nM
Cc1cccc(N2CCN(CCN3Cc4ccccc4S3(=O)=O)CC2)n1 [Example 10, 2-[2-(4-(6-Methyl-2-pyridinyl)-1-piperazinyl)ethyl]-2,3-dihydro-1,2-benzisothiazole 1,1-dioxide] | 0.5 nM
O=S1(=O)c2ccccc2CN1CCN1CCN(c2cccc(C(F)(F)F)c2)CC1 [Example 13, 2-[2-(4-(3-Trifluoromethylphenyl)-1-piperazinyl)ethyl]-2,3-dihydro-1,2-benzisothiazole 1,1-dioxide] | 1 nM
O=C1Cc2ccccc2N1CCN1CCN(c2nccc3ccccc23)CC1 [Example 19, 1-[2-(4-(1-Isoquinolinyl)-1-piperazinyl)ethyl]-1,3-dihydro-2H-indol-2-one] | 0.7 nM
O=C1c2ccccc2CN1CCN1CCN(c2nccc3ccccc23)CC1 [Example 22, 2-[2-(4-(1-Isoquinolinyl)-1-piperazinyl)ethyl]-1-isoindolinone] | 5.4 nM
